Results: patent US20220249415A1, “COMPOSITION OF AZELAIC ACID HAVING ADIPOSE TRIGLYCERIDE HYDROLYSIS EFFECT” (Korea University Research and Business Foundation, priority 2018, published 2022)
Where a chain is given by its changes, count along the chain named.

Tests used:
3T3-L1 adipocytes = assay: Intracellular triglyceride concentration (TG assay kit) in 3T3-L1 adipocytes; format: cell-based, mouse
Procedure: In order to confirm whether or not azelaic acid induces triglyceride hydrolysis in adipocytes by activating a cAMP-PKA-HSL signaling pathway, the adipocytes were directly treated with azelaic acid, and concentrations of intracellular lipids were measured. […] Then, a concentration of triglycerides was measured using a TG assay kit (BioVision, California, U.S.) and a concentration of cholesterol was measured using an Amplex Red cholesterol assay kit (Invitrogen, California, U.S.).

[1] = tested on: 3T3-L1 adipocytes in which the Olfr544 gene was knocked-down; assay: Lipolysis (glycerol) in adipocytes in which Olfr544 gene was knocked-down; format: cell-based, mouse; conditions: Olfr544 shRNA transfected adipocytes treated with azelaic acid for 2 hours
Procedure: After the Olfr544 gene was knocked-down in the mouse adipocytes, the adipocytes were treated with azelaic acid, and whether or not a triglyceride hydrolysis effect of azelaic acid was maintained was confirmed.

OR2S2 = molecular target: T1, OR2S2 (Homo sapiens, UniProt Q9NQN1); assay: siRNA knock-down of OR2S2 in HepG2 cells, fatty acid oxidation-related gene expression; format: cell-based; conditions: HepG2 cells during knock-down of OR2S2
T1 construct: endogenous in cells; host or cells: HepG2
T1 sequence (Q9NQN1 1-319): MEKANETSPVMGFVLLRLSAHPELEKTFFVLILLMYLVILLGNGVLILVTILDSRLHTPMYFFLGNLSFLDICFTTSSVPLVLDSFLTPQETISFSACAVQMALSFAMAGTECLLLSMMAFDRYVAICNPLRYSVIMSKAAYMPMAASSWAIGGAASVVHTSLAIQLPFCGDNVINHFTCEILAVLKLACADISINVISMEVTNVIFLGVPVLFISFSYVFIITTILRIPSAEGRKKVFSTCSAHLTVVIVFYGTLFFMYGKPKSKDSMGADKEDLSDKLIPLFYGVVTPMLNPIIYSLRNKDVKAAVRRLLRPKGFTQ
Source text: The gene expression of OR1E1, OR1K1, OR2K2, OR2S2, OR13C5, and OR51E2, corresponding to the top 6 receptors among 10 human olfactory receptors selected to be expressed in both adipose tissue and liver tissue while interacting with azelaic acid, was knocked down with siRNA in human-derived liver cell and adipocyte lines, namely HepG2 cells and hAMSC cells, respectively. Here, siRNAs that were used were OR1E2 siRNA (sc-93932), OR1K2 (sc-92810), OR2K2 (sc-92852), OR2S2 (sc-92505), OR13C5 (sc-92899), and OR51E2 (sc-76265), purchased from Santa Cruz Biotechnology Inc. (Dallas, Tx USA).
After knock-down treatment, the cell lines were treated with azelaic acid, and triglyceride hydrolysis and fatty acid oxidation-related gene expression in HepG2 cells as a human-derived liver cell line and hAMSC cells as a human-derived adipocyte line were measured.

OR2K2 [2] = molecular target: T2, OR2K2 (Homo sapiens, UniProt Q8NGT1, D270A); assay: Luciferase assay of OR2K2 mutants transfected into Hana3A cells; format: cell-based; conditions: OR2K2 D270A mutant in Hana3A cells
T2 construct: expressed in transfected cells; host or cells: Hana3A
T2 sequence (Q8NGT1 1-316 D270A): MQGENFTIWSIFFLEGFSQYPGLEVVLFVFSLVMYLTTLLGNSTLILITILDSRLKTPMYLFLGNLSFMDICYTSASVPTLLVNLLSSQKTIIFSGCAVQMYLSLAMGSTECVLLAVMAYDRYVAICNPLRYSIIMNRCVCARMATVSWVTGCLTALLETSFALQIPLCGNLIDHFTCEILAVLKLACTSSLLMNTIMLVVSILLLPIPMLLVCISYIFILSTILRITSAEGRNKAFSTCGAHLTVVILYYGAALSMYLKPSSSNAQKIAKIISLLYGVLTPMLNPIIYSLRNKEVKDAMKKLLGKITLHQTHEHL
Source text: (§1) In order to confirm the binding site of the olfactory receptor OR2K2 protein that binds to azelaic acid, among amino acids, Y120, which is a tyrosine (Y) residue, E159, which is a glutamate (E) residue, and D270, which is an aspartate (D) residue, were predicted through in-silico modeling, and the corresponding position of the predicted amino acid residue was subjected to site-directed mutagenesis to obtain a mutant. For negative controls, Y120A, E159A, and D270A mutants in which all three amino acid residues were replaced with alanine were used. For positive controls, Y120F, E159D, and D270E mutants, including Y120F replaced with phenylalanine (F) for Y120, E159D replaced with aspartate for E159, and D270E replaced with glutamate for D270, were used.
(§2) The cDNA clone including the sequence of each OR2K2 mutant for measuring the binding affinity of azelaic acid was transfected into Hana3A cells, and a luciferase assay was performed. […] This is deemed to be because azelaic acid binds to OR2K2 by reacting the E159 and D270 moieties of OR2K2 with both carboxyl groups of azelaic acid.

OR2K2 [3] = molecular target: T3, OR2K2 (Homo sapiens, UniProt Q8NGT1, E159A); assay: as above; format: cell-based; conditions: OR2K2 E159A mutant in Hana3A cells
T3 construct: expressed in transfected cells; host or cells: Hana3A
T3 sequence (Q8NGT1 1-316 E159A): T2 sequence (Q8NGT1 1-316 D270A) with E159A, A270D
Source text: as §1, §2

OR2K2 [4] = assay: as above; format: cell-based, human; conditions: OR2K2 with both D270 and E159 mutated, Hana3A cells
Source text: as §1, §2

HepG2 cells = assay: qPCR of anti-obesity gene in HepG2 cells, with OR2K2 knock-down; format: cell-based, human
Procedure: (§3) In-vitro equivalence confirmation: HepG2 cells, which are a human liver tissue cell line, and hAMSC cells, which are a human adipocyte line, were treated with azelaic acid and the anti-obesity gene was measured through a qPCR method.

hAMSC cells = assay: qPCR of anti-obesity gene in hAMSC cells, with OR2K2 knock-down; format: cell-based, human
Procedure: as §3

expression of fatty acid oxidation-related genes (PPARa, CTP1, Acox2) upon treatment with azelaic acid (OR2S2): did not change | activity of azelaic acid (luciferase) (OR2K2 [2]): statistically significantly decreased | activity of azelaic acid (luciferase) (OR2K2 [3]): statistically significantly decreased
Structure (SMILES): O=C(O)CCCCCCCC(=O)O [azelaic acid, nonanedioic acid]
concentration of intracellular triglycerides decreased as compared to a control (3T3-L1 adipocytes; 3T3-L1 adipocytes, 50 μM azelaic acid, 2 hours): 61.5% | concentration of triglycerides in the 3T3-L1 adipocytes (3T3-L1 adipocytes; azelaic acid 25 or 50 μM): significantly and concentration-dependently decreased | concentration of glycerol [1]: no change | azelaic acid reaction (luciferase) (OR2K2 [4]): statistically significantly reduced | effect on gene expression when the OR2K2 gene was knocked down (HepG2 cells; human liver tissue cell line (HepG2)): disappear | fatty acid oxidation gene expression (qPCR) (HepG2 cells; liver tissue cells (HepG2) treated with azelaic acid): increased | expression of a triglyceride hydrolysis gene (qPCR) (hAMSC cells; adipocytes (hAMSC) treated with azelaic acid): increased | effect on gene expression when the OR2K2 gene was knocked down (hAMSC cells; human adipocyte line (hAMSC)): disappear
